Measurements reported in patent US9695225B2, “Peptide compound for treatment of severe hypoglycemia” (Eli Lilly and Company, priority 2013, dated 2017).
Like-named read-outs stand apart in the source and are kept apart here. Non-standard residues stand in square brackets, D forms with d. Residues, ends and D or L forms follow the SMILES beside them. Aib = CC(C)(N)C(=O)O

What was measured:
C57/Bl6 male mice = assay: Effects on blood glucose levels in C57/Bl6 male mice; assay type: in vivo; conditions: for Blood glucose levels: mean±SEM of 4 mice
Description: To determine the effects of the compound of SEQ ID NO: 2 on blood glucose levels, the compound is administered to C57/Bl6 mice. Three month old male C57BL6 mice (Harlan Laboratories) are used Animals are individually housed in a temperature-controlled (24° C.) facility with a 12 hour light/dark cycle, and have free access to food and water. After 1 week acclimation to the facility, mice are randomized to treatment groups (n=4/group). Test compound is formulated in Buffer 2 (see Physical stability test using Thioflavin T binding assay). On the morning of test, food is removed at 08:00 AM. Two hours after food is removed, the test compound is given subcutaneously at 0, 1, 3 or 10 μg/kg doses. Blood glucose is measured at time 0, 15, 30, 60 and 120 minutes after test compound administration with an ACCU-CHECK® (Roche Diagnostics) glucometer. […] Results are expressed as mean±standard error mean (SEM) of 4 mice per group.
Blood glucose levels at 10 μg/kg of compound of SEQ ID NO: 2 is taken as the maximum value.

[1] = Physical stability test using Thioflavin T binding assay (fibrillation); assay type: physicochemical; conditions: 25° C.; for Thioflavin T fluorescence t = 0 h / Thioflavin T fluorescence t = 40 h / Thioflavin T fluorescence t = 120 h: 1 mg/mL, 300 rpm
Description: Fibrillation is a common problem when glucagon is formulated in aqueous solution. To assess the level of fibrillation of the compound of the present invention, a Thioflavin T binding assay is performed.
All samples are mechanically stressed at 25° C. in a magnetic stir plate set at 300 rpm. […] Raw data is collected with Softmax Pro 5.4.1 (Molecular Devices) and imported to Excel.

[2] = Chemical stability by RP-HPLC (% main peak); assay type: physicochemical; conditions: for 4° C. % Main Peak / 30° C. % Main Peak / 40° C. % Main Peak: 4 weeks; for % Main Peak Day 0: RP-HPLC
Description: (§1) The compound of SEQ ID NO: 2 is dissolved in H2O to a 10 mg/mL concentration (peptide content), filtered through a 0.22 μm filter (Millex, SLGV004SL), and then diluted to 1 mg/mL in Buffer P5 (10 mM Histidine, 150 mM NaCl in H2O, pH 5.0) or Buffer P6 (10 mM Histidine, 150 mM NaCl in H2O, pH 6.0). Each solution is transferred to three vials and autoclaved. Samples are then maintained at 4° C., 30° C. and 40° C. Samples are visually assessed at different time points for turbidity and phase separation. Stability of the compound is assessed by analytical reverse phase HPLC (RP-HPLC) on a Phenomenex Aeris Widepore, 3.6 μm, XB-C18 4.6×100 mm column (P/NO 00D-4482-E0) heated at 60° C. with a AB (A=0.05% TFA/H2O; B=0.04% TFA/acetonitrile) gradient of 5% B isocratic over 5 min, 5 to 25% B over 20 minutes, 25 to 30% B over 30 min, and 30 to 45% B over 10 min with a flow rate of 1.2 mL/min (wavelength of 220 ηm).
The compound of SEQ ID NO: 2 also maintains chemical stability at pH 5 (Buffer P5) and pH 6 (Buffer P6) when maintained at 4° C., 30° C. and 40° C. for 4 weeks.

[3] = assay type: physicochemical
Description: as §1

[4] = Buffer 1 (20 mM Histidine, pH 6.0)
[5] = Buffer 2 (10 mM Histidine, 150 nM NaCl, pH 6.0)
[6] = Buffer 3 (10 mM Histidine, 300 mM sorbitol, pH 6.0)
[7] = Buffer 4 (10 mM Histidine, 0.02% Tween 80, pH 6.0)
[8] = Buffer 5 (10 mM Histidine, 300 mM Arginine, pH 6.0)
[9] = Buffer 6 (10 mM Histidine, 300 mM sucrose, pH 6.0)

- fibrillation as measured by the Thioflavin T binding assay ([1]; pH 6, mechanical stress): did not demonstrate fibrillation
- Thioflavin T fluorescence t = 0 h [1, 4]: 74.6 fluorescence units
- Thioflavin T fluorescence t = 40 h [1, 4]: 76.9 fluorescence units
- Thioflavin T fluorescence t = 120 h [1, 4]: 89.2 fluorescence units
- Thioflavin T fluorescence t = 0 h [1, 5]: 130.1 fluorescence units
- Thioflavin T fluorescence t = 120 h [1, 5]: 137.0 fluorescence units
- Thioflavin T fluorescence t = 40 h ([1]; Buffer 2 (10 mM Histidine, NaCl, pH 6.0)): 137.3 fluorescence units
- Thioflavin T fluorescence t = 0 h [1, 6]: 68.1 fluorescence units
- Thioflavin T fluorescence t = 40 h [1, 6]: 71.4 fluorescence units
- Thioflavin T fluorescence t = 120 h [1, 6]: 72.4 fluorescence units
- Thioflavin T fluorescence t = 0 h [1, 7]: 51.9 fluorescence units
- Thioflavin T fluorescence t = 40 h [1, 7]: 56.2 fluorescence units
- Thioflavin T fluorescence t = 120 h [1, 7]: 57.4 fluorescence units
- Thioflavin T fluorescence t = 0 h [1, 8]: 113.9 fluorescence units
- Thioflavin T fluorescence t = 40 h [1, 8]: 120.0 fluorescence units
- Thioflavin T fluorescence t = 120 h [1, 8]: 123.2 fluorescence units
- Thioflavin T fluorescence t = 0 h [1, 9]: 78.0 fluorescence units
- Thioflavin T fluorescence t = 40 h [1, 9]: 74.1 fluorescence units
- Thioflavin T fluorescence t = 120 h [1, 9]: 88.9 fluorescence units
- 4° C. % Main Peak ([2]; Buffer P5 (pH 5.0)): 98.01%
- 30° C. % Main Peak ([2]; Buffer P5 (pH 5.0)): 97.07%
- 40° C. % Main Peak ([2]; Buffer P5 (pH 5.0)): 92.64%
- % Main Peak Day 0 ([2]; Buffer P5 (pH 5.0)): 99.55%
- 4° C. % Main Peak ([2]; Buffer P6 (pH 6.0)): 98.60%
- 30° C. % Main Peak ([2]; Buffer P6 (pH 6.0)): 97.71%
- 40° C. % Main Peak ([2]; Buffer P6 (pH 6.0)): 95.00%
- % Main Peak Day 0 ([2]; Buffer P6 (pH 6.0)): 99.02%
- main peak changes ([2]; pH 5 (Buffer P5), after 4 weeks at 30° vs. 4° C.): less than 1%
- main peak changes ([2]; pH 5 (Buffer P5), after 4 weeks at 40° C. vs. 4° C.): less than 6%
- main peak changes ([2]; pH 6 (Buffer P6), after 4 weeks at 30° vs. 4° C.): less than 1%
- main peak changes ([2]; pH 6 (Buffer P6), after 4 weeks at 40° C. vs. 4° C.): less than 4%
- solubility by visual assessment and RP-HPLC [3]: maintains good solubility
- 30° C. vs 4° C. Recovery 4 wk ([3]; Buffer P5 (pH 5.0)): 100%
- 40° C. vs 4° C. Recovery 4 wk ([3]; Buffer P5 (pH 5.0)): 100%
- 30° C. vs 4° C. Recovery 4 wk ([3]; Buffer P6 (pH 6.0)): 100%
- 40° C. vs 4° C. Recovery 4 wk ([3]; Buffer P6 (pH 6.0)): 101%
- 4° C. Total Peak Area 4 wk ([3]; pH 5): 4933
- 30° C. Total Peak Area 4 wk ([3]; pH 5): 4932
- 40° C. Total Peak Area 4 wk ([3]; pH 5): 4932
- 4° C. Total Peak Area 4 wk ([3]; pH 6): 4918
- 30° C. Total Peak Area 4 wk ([3]; pH 6): 4911
- 40° C. Total Peak Area 4 wk ([3]; pH 6): 4960
Compound: CC(C)C[C@H](NC(=O)[C@H](Cc1c[nH]c2ccccc12)NC(=O)[C@H](CCC(=O)O)NC(=O)[C@@H](NC(=O)[C@H](Cc1ccccc1)NC(=O)[C@H](CCC(=O)O)NC(=O)[C@H](CCC(N)=O)NC(=O)[C@H](C)NC(=O)[C@H](CCCCN)NC(=O)[C@H](CCCCN)NC(=O)C(C)(C)NC(=O)[C@H](CC(=O)O)NC(=O)[C@H](CC(C)C)NC(=O)[C@H](Cc1ccc(O)cc1)NC(=O)[C@H](CCCCN)NC(=O)[C@H](CO)NC(=O)[C@H](Cc1ccc(O)cc1)NC(=O)[C@H](CC(=O)O)NC(=O)[C@H](CO)NC(=O)[C@H](CC(C)C)NC(=O)[C@H](Cc1ccccc1)NC(=O)[C@@H](NC(=O)CNC(=O)[C@H](CCC(N)=O)NC(=O)[C@H](C)NC(=O)[C@@H](N)Cc1c[nH]cn1)[C@@H](C)O)C(C)C)C(=O)N[C@@H](CC(C)C)C(=O)N[C@@H](CCCCN)C(=O)N[C@H](C(=O)NCC(=O)N1CCC[C@H]1C(=O)N[C@@H](CO)C(=O)N[C@@H](CO)C(=O)NCC(=O)N[C@@H](C)C(=O)N1CCC[C@H]1C(=O)N1CCC[C@H]1C(=O)N[C@@H](CCCCN)C(=O)N[C@@H](CO)C(=O)N[C@@H](CCCCN)C(N)=O)[C@@H](C)O [SEQ ID NO: 2] (H-HAQGTFLSDYSKYLD[Aib]KKAQEFVEWLLKTGPSSGAPPKSK-NH2)
- Blood glucose levels (C57/Bl6 male mice; 1 μg/kg subcutaneously, 0 minutes): 165.3 ± 16.7 mg/dL
- Blood glucose levels (C57/Bl6 male mice; 1 μg/kg subcutaneously, 15 minutes): 212.0 ± 12.6 mg/dL
- Blood glucose levels (C57/Bl6 male mice; 1 μg/kg subcutaneously, 30 minutes): 203.1 ± 13.1 mg/dL
- Blood glucose levels (C57/Bl6 male mice; 1 μg/kg subcutaneously, 60 minutes): 169.9 ± 10.1 mg/dL
- Blood glucose levels (C57/Bl6 male mice; 1 μg/kg subcutaneously, 120 minutes): 141.0 ± 4.2 mg/dL
- Blood glucose levels (C57/Bl6 male mice; 3 μg/kg subcutaneously, 0 minutes): 148.0 ± 4.6 mg/dL
- Blood glucose levels (C57/Bl6 male mice; 3 μg/kg subcutaneously, 15 minutes): 234.1 ± 9.8 mg/dL
- Blood glucose levels (C57/Bl6 male mice; 3 μg/kg subcutaneously, 30 minutes): 242.1 ± 8.3 mg/dL
- Blood glucose levels (C57/Bl6 male mice; 3 μg/kg subcutaneously, 60 minutes): 169.4 ± 7.3 mg/dL
- Blood glucose levels (C57/Bl6 male mice; 3 μg/kg subcutaneously, 120 minutes): 148.2 ± 10.9 mg/dL
- Blood glucose levels (C57/Bl6 male mice; 10 μg/kg subcutaneously, 0 minutes): 155.4 ± 10.1 mg/dL
- Blood glucose levels (C57/Bl6 male mice; 10 μg/kg subcutaneously, 15 minutes): 270.0 ± 12.7 mg/dL
- Blood glucose levels (C57/Bl6 male mice; 10 μg/kg subcutaneously, 30 minutes): 308.5 ± 2.6 mg/dL
- Blood glucose levels (C57/Bl6 male mice; 10 μg/kg subcutaneously, 60 minutes): 212.4 ± 8.3 mg/dL
- Blood glucose levels (C57/Bl6 male mice; 10 μg/kg subcutaneously, 120 minutes): 152.4 ± 1.5 mg/dL
- ED50 (C57/Bl6 male mice; calculated on the 30 minute glucose measurements, 10 μg/kg taken as maximum, subcutaneous): 3.28 µg/kg
- effect on blood glucose (C57/Bl6 male mice; subcutaneous, C57/Bl6 mice): able to increase blood glucose
- Physical appearance ([3]; 1 mg/mL, Buffer P5 and P6, over 4 weeks): clear to colorless, with no opalescences and no particles
